From patent US7115750B1, “Melanin concentrating hormone antagonist” (Takeda Pharmaceutical Company Limited, priority 1999, dated 2006)

SMILES | melting point
CNc1ccc(-c2ccc(C(=O)Nc3ccc4c(c3)CCC(CN(C)C)C4)cc2)cc1 (stereo not shown) [Example 38, N-[6-[(N,N-Dimethylamino)methyl]-5,6,7,8-tetrahydro-2-naphthalenyl]-4′-(methylamino)[1,1′-biphenyl]-4-carboxamide] | 163 to 165 °C
CN(C)CC1CCc2cc(NC(=O)c3ccc(-c4ccc(C(=O)O)cc4)cc3)ccc2C1 (stereo not shown) [Example 40, 4′-[[[6-[(N,N-Dimethylamino)methyl]-5,6,7,8-tetrahydro-2-naphthalenyl]amino]carbonyl][1,1′-biphenyl]-4-carboxylic acid] | 143 °C (dec.)
CN(C)CC1=Cc2ccc(NC(=O)c3ccc(-c4ccc(Cl)cc4)cc3)cc2CC1 [Example 41, 4′-Chloro-N-[6-[(N,N-dimethyl)methyl]-7,8-dihydro-2-naphthalenyl][1,1′-biphenyl]-4-carboxamide] | 204 to 207 °C
CN(C)CC1=Cc2ccc(NC(=O)c3ccc(-c4ccc(F)cc4)cc3)cc2CC1 [Example 42, 4′-Fluoro-N-[6-[(N,N-dimethylamino)methyl]-7,8-dihydro-2-naphthalenyl][1,1′-biphenyl]-4-carboxamide] | 190 to 193 °C
CN(C)CC1Cc2ccc(NC(=O)c3ccc(-c4ccc(Cl)cc4)cc3)cc2C1 (stereo not shown) [Example 43, 4′-Chloro-N-[2-[(dimethylamino)methyl]-2,3-dihydro-1H-inden-5-yl][1,1′-biphenyl]-4-carboxamide] | 192 to 194 °C
CN(C)CC1CCCc2cc(NC(=O)c3ccc(-c4ccc(F)cc4)cc3)ccc2C1 (stereo not shown) [Example 45, 4′-Fluoro-N-[6-[(dimethylamino)methyl]-6,7,8,9-tetrahydro-5H-benzo[a]cyclohepten-2-yl][1,1′-biphenyl]-4-carboxamide] | 167 to 169 °C
CN(C)CC1CCCc2cc(NC(=O)c3ccc(-c4ccc(Cl)cc4)cc3)ccc2C1 (stereo not shown) [Example 46] | 173 to 175 °C
CN(C)CC1=Cc2ccc(NC(=O)c3ccc(-c4ccccc4)cc3)cc2CC1 [Example 47, N-[6-[(Dimethylamino)methyl]-7,8-dihydro-2-naphthalenyl][1,1′-biphenyl]-4-carboxamide] | 173 to 175 °C
CN(C)CC1=Cc2ccc(NC(=O)c3ccc(-c4ccccc4Cl)cc3)cc2CC1 [Example 50, 2′-Chloro-N-[6-[(dimethylamino)methyl]-7,8-dihydro-2-naphthalenyl][1,1′-biphenyl]-4-carboxamide] | 145 to 147 °C
O=C(Nc1ccc2c(c1)CCC(CN1CCCCC1)C2)c1ccc(-c2ccc(F)cc2)cc1 (stereo not shown) [Example 54, 4′-Fluoro-N-[6-(1-piperidinylmethyl)-5,6,7,8-tetrahydro-2-naphthalenyl][1,1′-biphenyl]-4-carboxamide] | 179 to 181 °C
O=C(Nc1ccc2c(c1)CCC(CN1CCCCC1)C2)C1CC(=O)N(c2ccccc2)C1 (stereo not shown) [Example 56, 5-Oxo-1-phenyl-N-[6-(1-piperidinylmethyl)-5,6,7,8-tetrahydro-2-naphthalenyl]-3-pyrrolidinecarboxamide] | 162 to 164 °C
Cc1ccc(-c2ccc(C(=O)Nc3ccc4c(c3)CCC(CN(C)C)=C4)cc2)cc1 [Example 85] | 195 to 196 °C
O=C(Nc1ccc2c(c1)CCC(CN1CCCC1)=C2)c1ccc(-c2ccc(F)cc2F)nc1 [Example 87, 6-(2,4-Difluorophenyl)-N-[6-[(1-pyrrolidinyl)methyl]-7,8-dihydro-2-naphthalenyl]nicotinamide] | 169 to 170 °C
O=C(Nc1ccc2c(c1)CCC(CN1CCCC1)=C2)c1ccc(-c2ccccc2)cc1 [Example 94, N-[6-(1-Pyrrolidinylmethyl)-7,8-dihydro-2-naphthalenyl][1,1′-biphenyl]-4-carboxamide] | 176 to 177 °C
O=C(Nc1ccc2c(c1)CCC(CN1CCCC1)=C2)c1ccc(-c2ccc(F)cc2)cc1 [Example 95, 4′-Fluoro-N-[6-(1-pyrrolidinylmethyl)-7,8-dihydro-2-naphthalenyl][1,1′-biphenyl]-4-carboxamide] | 189 to 192 °C
O=C(Nc1ccc2c(c1)CCC(CN1CCCC1)C2)c1ccc(-c2ccccc2)cc1 (stereo not shown) [Example 96, N-[6-(1-Pyrrolidinylmethyl)-5,6,7,8-tetrahydro-2-naphthalenyl][1,1′-biphenyl]-4-carboxamide] | 144 to 146 °C
O=C(Nc1ccc2c(c1)CCC(CN1CCCC1)C2)c1ccc(-c2ccc(F)cc2)cc1 (stereo not shown) [Example 97, 4′-Fluoro-N-[6-(1-pyrrolidinylmethyl)-5,6,7,8-tetrahydro-2-naphthalenyl][1,1′-biphenyl]-4-carboxamide] | 185 to 189 °C
O=C(Nc1ccc2c(c1)CCC(CN1CCCC1)C2)c1ccc(-c2ccc(Cl)cc2)cc1 (stereo not shown) [Example 98, 4′-Chloro-N-[6-(1-pyrrolidinylmethyl)-5,6,7,8-tetrahydro-2-naphthalenyl][1,1′-biphenyl]-4-carboxamide] | 206 to 209 °C
O=C(Nc1ccc2c(c1)CCC(CN1CCCC1)=C2)N1CCN(c2ccc(F)cc2)CC1 [Example 100, 4-(4-Fluorophenyl)-N-[6-(1-pyrrolidinylmethyl)-7,8-dihydro-2-naphthalenyl]-1-piperazinecarboxamide] | 179 to 181 °C
CN(C)CC1=Cc2ccc(C(=O)Nc3ccc(Br)cc3)cc2CC1 [Example 101, N-(4-Bromophenyl)-6-[(dimethylamino)methyl]-7,8-dihydro-2-naphthalenecarboxamide] | 175 to 179 °C
O=C(Nc1ccc2c(c1)CCC(CN1CCCC1)=C2)c1ccc(-c2ccc(F)cc2F)cc1 [Example 103, 2′,4′-Difluoro-N-[6-(1-pyrrolidinylmethyl)-7,8-dihydro-2-naphthalenyl][1,1′-biphenyl]-4-carboxamide] | 165 to 167 °C
CN(C)CC1COc2ccc(NC(=O)c3ccc(-c4ccccc4)cc3)cc2O1 (stereo not shown) [Example 104, N-[3-[(Dimethylamino)methyl]-2,3-dihydro-1,4-benzodioxin-6-yl][1,1′-biphenyl]-4-carboxamide] | 124 to 126 °C
CN(C)CC1COc2cc(NC(=O)c3ccc(-c4ccc(Cl)cc4)cc3)ccc2O1 (stereo not shown) [Example 106, 4′-Chloro-N-[2-[(dimethylamino)methyl]-2,3-dihydro-1,4-benzodioxin-6-yl][1,1′-biphenyl]-4-carboxamide] | 215 to 217 °C
CN(C)CC1COc2cc(NC(=O)c3ccc(-c4ccc(F)cc4F)cc3)ccc2O1 (stereo not shown) [Example 107, 2′,4′-Difluoro-N-[2-[(dimethylamino)methyl]-2,3-dihydro-1,4-benzodioxin-6-yl][1,1′-biphenyl]-4-carboxamide] | 209 to 210 °C
O=C(Nc1ccc2c(c1)OCC(CN1CCCC1)O2)c1ccc(-c2ccc(Cl)cc2)nc1 (stereo not shown) [Example 108, 6=(4-Chlorophenyl)-N-[2-(1-pyrrolidinylmethyl)-2,3-dihydro-1,4-benzodioxin-6-yl]nicotinamide] | 218 to 220 °C

Other lines, results leading:

melting point | SMILES
199 to 204 °C | CC1=C(CN(C)C)CCc2cc(NC(=O)c3ccc(-c4ccc(Cl)cc4)cc3)ccc21 [Example 111, 4′-Chloro-N-[6-[(dimethylamino)methyl]-5-methyl-7,8-dihydro-2-naphthalenyl][1,1′-biphenyl]-4-carboxamide]
201 to 204 °C | CCC1=C(CN(C)C)CCc2cc(NC(=O)c3ccc(-c4ccc(Cl)cc4)cc3)ccc21 [Example 112, 4′-Chloro-N-[6-[(dimethylamino)methyl]-S-ethyl-7,8-dihydro-2-naphthalenyl][1,1′-biphenyl]-4-carboxamide]
159 to 162 °C | CC(C)CC1=C(CN(C)C)CCc2cc(NC(=O)c3ccc(-c4ccc(Cl)cc4)cc3)ccc21 [Example 113, 4′-Chloro-N-(6-[(dimethylamino)methyl)-5-isobutyl-7,8-dihydro-2-naphthalenyl][1,1′-biphenyl]-4-carboxamide]
165 to 167 °C | COc1ccc(-c2ccc(C(=O)Nc3ccc4c(c3)CCC(CN3CCCC3)=C4C)cn2)cc1 [Example 116, 6-(4-Methoxyphenyl)-N-[5-methyl-6-(1-pyrrolidinylmethyl)-7,8-dihydro-2-naphthalenyl]nicotinamide]
191 to 192 °C | N#CC1=C(CN2CCCC2)CCc2cc(NC(=O)c3ccc(-c4ccc(Cl)cc4)cc3)ccc21 [Example 117, 4′-Chloro-N-[5-cyano-6-(1-pyrrolidinylmethyl)-7,8-dihydro-2-naphthalenyl][1,1′-biphenyl]-4-carboxamide]
168 to 170 °C | N#CC1=C(CN2CCCC2)CCc2cc(NC(=O)c3ccc(-c4ccccc4)cc3)ccc21 [Example 118, N-[5-Cyano-6-(1-pyrrolidinylmethyl)-7,8-dihydro-2-naphthalenyl][1,1′-biphenyl]-4-carboxamide]
145 to 148 °C | CN(C)CC1CCc2cc(NC(=O)c3cccc(-c4ccccc4)c3)ccc2C1 (stereo not shown) [Example 120, N-[6-[(Dimethylamino)methyl]-5,6,7,8-tetrahydro-2-naphthalenyl][1,1′-biphenyl]-3-carboxamide]
190 to 192 °C | CN(C)CC1CCc2cc(NC(=O)c3cc4ccccc4[nH]3)ccc2C1 (stereo not shown) [Example 122]
168 to 171 °C | CN(C)CC1=Cc2ccc(NC(=O)CNC(=O)c3ccc(Cl)cc3)cc2CC1 [Example 126, 4-Chloro-N-[2-[[6-[(dimethylamino)methyl]-7,8-dihydro-2-naphthalenyl]amino]-2-oxoethyl]benzamide]
202 to 203 °C | CN(C)CC1=Cc2ncc(NC(=O)c3ccc(-c4ccccc4)cc3)cc2CC1 [Example 133, N-[7-[(Dimethylamino)methyl]-5,6-dihydro-3-quinolinyl][1,1′-biphenyl]-4-carboxamide]
220 to 222 °C | CN(C)CC1=Cc2ncc(NC(=O)c3ccc(-c4ccc(Cl)cc4)cc3)cc2CC1 [Example 134, 4′-Chloro-N-[7-[(dimethylamino)methyl]-5,6-dihydro-3-quinolinyl][1,1′-biphenyl]-4-carboxamide]
243 to 245 °C | COc1ccc(-c2ccc(C(=O)Nc3ccc4c(c3)OCC(CN3CCCC3)=C4)cn2)cc1 [Example 141, 6-(4-Methoxyphenyl)-N-[3-(1-pyrrolidinylmethyl)-2H-chromen-7-yl]nicotinamide]
